Assay [1] has as its system model of neuropathic pain in rats. In words: Model of neuropathic pain (sciatic nerve ligation), threshold of pain sensitivity by dolorimeter. It counts as in vivo, male Wistar rats. Conditions: for Changes in the threshold of pain perception, regarding healthy limb: damaged vs healthy limb before administration (baseline); for Threshold of pain sensitivity, damaged limb / Threshold of pain sensitivity, healthy limb: day 14 after ligation, before administration (baseline), M±m, n=10; for Pain perception threshold changes, regarding pathology before administration of compounds / Threshold of pain sensitivity 2 hours after compounds administration: 2 hours; for Threshold of pain sensitivity 2 hours after compounds administration: damaged limb. The method, then:
An evaluation of the antinociceptive action of the test compound (1) on a model of neuropathic pain was carried out on 50 male Wistar rats weighing 270-310 g. The model of neuropathic pain was reproduced by ligation of the sciatic nerve at the level of the upper third of the thigh at the level of the popliteal fossa higher than the site of its trifurcation by N. tibialis, N. peroneus and N. suralis (see Mironov A. N. et al. Guidelines for conducting preclinical studies of drugs. Part one.—Moscow 2012. p. 197-219). The development of the pathological process lasted 14 days. The degree of hyperalgesia was determined using a dolorimeter (Dolorimeter Baseline, USA) by determining the threshold of pain sensitivity (TPS)—the minimum pressure on the lower surface of the rat's foot (g/mm^2), which caused pain in the animal (vocalization and/or withdrawal of the foot). Each animal was given 5 attempts; the threshold value was taken with such a pressure force, which caused a positive response in at least one attempt. The threshold of pain sensitivity was compared on intact and damaged limbs on day 14 after ligation (pathology without treatment), as well as on the injured limb after 2 hours (peak of action) after the drugs administration. The test compound and the reference drug (ketorolac) were administered intragastrally (as gavage) once at doses of 0.5 and 3 mg/kg. Sciatic nerve ligation in animals caused the development of neuropathic pain syndrome, which manifested itself in behavioral reactions of the rat and lowering the threshold of pain sensitivity by an average of 44-48% (see Table 1). The analgesic effect of Compound 1 compared with ketorolac under the conditions of their intragastral administration on the model of neuropathic pain in rats (M±m, n=10, where n is the number of animals in the experiments) is shown in Table 1.

The conditions of assay [2]: according to the literature data for ketorolac; cited from earlier work.
In assay [3] the test system is thermal tail flick test in rats. In words: Model of thermal stimulation (tail-flick). Conditions: n=10. It counts as in vivo. The source says:
The problem was solved by experimental study of the antinociceptive action of the test compound 1 on the model of NP in rats and on the model of pain with the participation of central mechanisms, in particular, thermal tail flick test in rats. Based on the available data on the positive response of constant pain to anticonvulsants in the acute and paroxysmal phase and considering structure 1, we performed an evaluation of the anticonvulsant action of the compound on models of pentamethylenetetrazol-induced convulsions and seizures caused by maximal electroshock (MES). We have taken into account the possible side reaction (ulcerogenic effect) of the compound in experimental animals, expressed in the formation of defects in the mucous membrane of the gastrointestinal tract or in provocation of already existing peptic ulcer relapses. The probability of ulcers formation of medicinal origin is especially high during administration of non-steroidal anti-inflammatory drugs in high doses and in combination with their long-term use in the form of tablets.
A more pronounced effect was after parenteral administration (see Table 2). Control: solvent (twin, distilled water, pH-corrector). Results of the study of Compound 1 and ketorolac analgesic effects on the model of thermal stimulation (tail-flick) as degree of pain sensitivity threshold increase in relation to the initial level (%), n=10, are given in Table 2.

The subject of assay [4] is pentylenetetrazole-induced convulsions. The assay is described as follows: Pentylenetetrazole-induced seizures. It counts as in vivo, non-linear male mice. Conditions: mice; subcutaneously; dose-effect relationship of the seizure agent. The source says: In many cases, the presence of anticonvulsant (antiepileptic) effect of the compounds correlates with analgesic properties on corresponding models of neuralgia. As a general step is a primary screening of new anticonvulsant compounds on rodents with the help of pentylenetetrazole test and MES (maximal electroshock seizures) as they have a qualitative difference in development and manifestations of seizures. It is believed that the compound ability to prevent the MES-induced seizures is connected with impulse spread inhibition throughout the central nervous system. It is believed that the ability to prevent the MES-induced seizures development indicates the potential efficacy of the compound in the preventing propagation of a pulse along the neural tissue (see Tompson E. Medicines. Bioscreening/Under the editorship of A. V. Stefanova.-K.: Avitsenna, 1998.—250 p.).
The experiments were performed on non-linear male mice weighing 19-29 g. Pentylenetetrazole was administered subcutaneously in the cervical region of the back. […]
For MES-induced seizures experimental animals were exposed to electric stimulation through the corneal electrodes (50 Hz, 50 mA for mice during 0.2 s). The number of animals with the maximum tonic extension of the hind limbs, which occurs in almost 100% of the animals in the control group, was calculated. […]

Assay [5] deals with formalin test in mice. The assay is described as follows: Formalin test (licking time of the injected paw). Conditions: 10.00 mg/kg intraperitoneally 40 min before formalin. Type of assay: in vivo, white male non-linear mice.
Assay [6] concerns carrageenan rat paw edema. In words: Carrageenan rat paw edema. Type of assay: in vivo, male white rats. Conditions: 10.0 mg/kg intraperitoneally 40 min before carrageenan. An excerpt:
Given the fact that Compound 1 affects not only the painful, but also the inflammatory phase, we undertook an in-depth study of its anti-inflammatory effect. The most common screening method of anti-inflammatory activity is the model of inflammatory edema of the rat hind paw, induced by the subplantar administration of various phlogogenic agents. Under the conditions of carrageenan administration, a sufficiently pronounced edema reaction is observed, which slowly develops and persists for a long time. The maximum size of edema is observed in 2-4 hours.
The anti-inflammatory properties of the test compounds were studied in the model of carrageenan rat paw edema. Male white rats weighing 150-180 g were used in the experiments. Before the administration of the experimental substances, the volumes of the rats' paws subsequently injected by phlogogen were measured. The test compounds and the reference drug—diclofenac-sodium, were administered intraperitoneally 40 minutes prior the inflammation induction. The control group of the rats received an equivalent amount of physiological solution in the emulsion with Tween-80. Acute aseptic inflammation was induced by a 1% aqueous solution of 0.1 ml)—carrageenan injection under plantar aponeurosis of the hind paw of animals of the experimental and control groups (see Trinus F. P. Nonsteroidal anti-inflammatory drugs/F. P. Trinus, N. A. Mohort, B. M. Klebanov//K., 1975, pp. 204-231., Winter C. A. Carrageenin—induced edema in hind paw of the rat as an assay for antiinflammatory drugs/C. A. Winter, E. A. Risley, G. V. Nuss//Proc. Soc. Exp. Biol. Med.—1962.—Vol. 111.—P. 544-547). The inflammatory reaction significance was evaluated after two and four hours after the phlogogen injection. Registration of edema size was carried out by mechanical measurement of foot volume in dynamics according to Zakharevsky A. S. (see Zaharevskiy A. S. The influence of some indole derivatives on the nervous system. Diss. cand. med. science/Zaharevskiy Aleksandr Stepanovich-Minsk.—1969.—78-80 p.). The edema extent was estimated according to the difference in volume between the swollen paw and the paw before inflammation induction. The anti-inflammatory efficacy of the test compounds was determined as the ability of the test compounds to suppress the inflammatory response in the experimental animals compared to the control animals and expressed as a percentage. The calculation was carried out according to the following formula:
The percentage of inflammation suppression=(ΔVκ−ΔV ? /ΔVκ)·100%,
where: ΔVκ—the average increase in the volume of the swollen paw in the control;
ΔV ? —the average increase in the volume of the swollen paw in animals injected by experimental substances.

For assay [7], the system named is MES-induced seizures. The following applies: literature data; interval in brackets; cited from earlier work.
Assay [8] relates to pentylenetetrazole-induced convulsions. Conditions: literature data; interval in brackets; cited from earlier work.

We go through 5 compounds from US11304956B2, “Use of 7-bromo-5-(O-chlorophenyl)-3-propoxy-1,2-dihydro-3H-1,4-benzodiazepin-2-one for inhibition of neuropathic pain and seizures of different etiology” (priority 2016, dated 2022).

Structures are written as SMILES.

For `O=C(c1ccccc1)c1ccc2n1CCC2C(=O)O` (stereo not drawn) [Ketorolac, ketorolac], the “Changes in the threshold of pain perception, regarding healthy limb” value in assay [1] (0.5 mg/kg group) is reported as −47.3 ± 3.9%; in assay [1] (3 mg/kg group), −45.7 ± 3.5%. Moreover, the “Threshold of pain sensitivity, damaged limb” value in assay [1] (0.5 mg/kg group) is 287.9 ± 19.85 g/mm^2; in assay [1] (3 mg/kg group), 296.4 ± 19.6 g/mm^2. Moreover, the “Threshold of pain sensitivity, healthy limb” value in assay [1] (0.5 mg/kg group) is reported as 550.0 ± 19.0 g/mm^2; in assay [1] (3 mg/kg group), 547.1 ± 15.1 g/mm^2. Moreover, the “Pain perception threshold changes, regarding pathology before administration of compounds” value in assay [1] (0.5 mg/kg intragastrally once) is “+24.6 ± 5.2%”; in assay [1] (0.5 mg/kg intragastrally once, listed as ketorolac), “+24.6%”; in assay [1] (3 mg/kg intragastrally once), “+70.1 ± 6.2%”; in assay [1] (3 mg/kg intragastrally once, listed as ketorolac) it was “+70.1%”. Moreover, the results for the “Threshold of pain sensitivity 2 hours after compounds administration” value in assay [1] (0.5 mg/kg intragastrally once) and in assay [1] (3 mg/kg intragastrally once) were 355.0 ± 19.5 g/mm^2 and 501.4 ± 34.9 g/mm^2, respectively. For the same compound, the “ED50 (analgesic effect)” value in assay [2] is 3 mg/kg. Further, the “Degree of pain sensitivity threshold increase in relation to the initial level” value was “+7.5%” in assay [3] (0.5 mg/kg orally, 1 hour); “+14.6%” in assay [3] (0.5 mg/kg orally, 2 hours); “+28.6%” in assay [3] (0.5 mg/kg orally, 4 hours); “+12.1%” in assay [3] (0.5 mg/kg orally, 6 hours); “+43.4%” in assay [3] (3 mg/kg orally, 1 hour); “+75.7%” in assay [3] (3 mg/kg orally, 2 hours). Besides, the “Degree of pain sensitivity threshold increase in relation to the initial level” value is “+65.7%” in assay [3] (3 mg/kg orally, 4 hours) and “+28.1%” in assay [3] (3 mg/kg orally, 6 hours).
Consider `C1CCc2nnnn2CC1` [pentylenetetrazole, reference compound], for which the “ED95 of pentylenetetrazole (seizure agent)” value in assay [4] was 120 mg/kg.
As to `O=C(O)Cc1ccccc1Nc1c(Cl)cccc1Cl` [Diclofenac-sodium, diclofenac-sodium, reference compound], the “I phase, % effect (decrease in the time of licking of the paw)” value in assay [5] (phase 0-5 min) was 51.00 ± 11.64 %. Moreover, in assay [5] (phase 15-40 min), the “II phase, effect (decrease in the time of licking of the paw)” value was 53.60 ± 11.02. In assay [6], the “Inhibition of edema in 2 hours (%)” value is listed as 43.0 ± 7.0 % and the “Inhibition of edema in 4 hours (%)” value was determined as 57.10 ± 8.3 %.
As to `CC(C)C[C@H](CN)CC(=O)O` [Pregabalin, pregabalin], the “Anticonvulsive activity (ED50), MES” value in assay [7] is reported as 73 (57-93) mg/kg. In addition, in assay [8], the “Anticonvulsive activity (ED50), Pentylenetetrazole” value is 31 (16-62) mg/kg.
Take `NCC1(CC(=O)O)CCCCC1` [Gabapentin, gabapentin]: the “Anticonvulsive activity (ED50), MES” value in assay [7] is 19 (16-24) mg/kg. For the same compound, the “Anticonvulsive activity (ED50), Pentylenetetrazole” value in assay [8] is 32 (50-200) mg/kg.
